Experimental data from patent publication US20070134326A1, “Composition for releasing a weak base for an extended period of time” (priority 2003, published 2007).

Tests used:
pH dependent solubility = type: physicochemical; settings: around pH 2 vs around pH 7
glucose utilization = settings: PK/PD model estimate, diabetic patients; FDA Briefing Document, Avandia IND 43,468; cited from earlier work

In the case of `CN(CCOc1ccc(CC2SC(=O)NC2=O)cc1)c1ccccn1` (centres unmarked) [Compound A, 5-[4-[2-(N-methyl-N-(2pyridyl)amino)ethoxy]benzyl]thiazolidine-2,4-dione], the pH dependent solubility (pH dependent solubility) is listed as “more soluble in the acidic conditions of the stomach (around pH 2) than in the near neutral conditions of the lower intestine (around pH 7)” and the “concentration associated with half-maximal stimulation (SC50) of glucose utilization” value (glucose utilization) is listed as ~52 ng/mL.
